Source: patent US20170342451A1, “BIOSYNTHESIS OF PACLITAXEL INTERMEDIATE” (Board of Trustees of Michigan State University, priority 2012, published 2017)

What was measured:
TycA = biological target: T1, TycA (Brevibacillus parabrevis, UniProt P09095); assay type: biochemical, Brevibacillus brevis; details: ATP at apparent saturation
T1 construct: this wild-type tycA cDNA encoding the A-, T-, and E-domains was subcloned into a pSU18 vector; made in house; host or cells: Escherichia coli BL21(DE3)
T1 sequence (P09095 with tags, fused parts or gaps): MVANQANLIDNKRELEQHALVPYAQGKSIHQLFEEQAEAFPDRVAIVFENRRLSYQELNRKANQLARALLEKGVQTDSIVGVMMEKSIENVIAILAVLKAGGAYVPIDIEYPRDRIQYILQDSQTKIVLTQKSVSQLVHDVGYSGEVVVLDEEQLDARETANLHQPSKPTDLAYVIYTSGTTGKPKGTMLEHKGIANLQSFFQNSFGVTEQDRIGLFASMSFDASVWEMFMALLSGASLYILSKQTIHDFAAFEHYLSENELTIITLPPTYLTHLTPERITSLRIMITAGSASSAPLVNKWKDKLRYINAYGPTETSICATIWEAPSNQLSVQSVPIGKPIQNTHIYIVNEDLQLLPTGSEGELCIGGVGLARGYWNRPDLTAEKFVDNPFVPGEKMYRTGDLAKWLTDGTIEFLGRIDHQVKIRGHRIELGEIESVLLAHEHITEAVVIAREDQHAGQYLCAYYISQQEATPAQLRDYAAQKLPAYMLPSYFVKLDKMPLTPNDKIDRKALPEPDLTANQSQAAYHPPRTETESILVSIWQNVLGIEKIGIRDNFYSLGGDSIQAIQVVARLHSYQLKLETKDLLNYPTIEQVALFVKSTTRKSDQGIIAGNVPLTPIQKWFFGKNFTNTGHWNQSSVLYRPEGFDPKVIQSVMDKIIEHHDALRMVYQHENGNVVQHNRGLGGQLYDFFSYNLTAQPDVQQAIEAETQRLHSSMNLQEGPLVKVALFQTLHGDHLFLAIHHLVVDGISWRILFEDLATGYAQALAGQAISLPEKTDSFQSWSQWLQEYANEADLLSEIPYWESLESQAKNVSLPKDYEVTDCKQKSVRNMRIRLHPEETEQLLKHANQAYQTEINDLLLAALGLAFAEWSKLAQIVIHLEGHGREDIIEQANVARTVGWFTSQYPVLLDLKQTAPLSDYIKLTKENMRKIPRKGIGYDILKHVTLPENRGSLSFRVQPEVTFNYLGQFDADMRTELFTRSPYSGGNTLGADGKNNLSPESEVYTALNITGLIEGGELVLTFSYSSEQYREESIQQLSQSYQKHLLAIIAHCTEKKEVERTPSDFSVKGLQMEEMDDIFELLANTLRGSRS
Protocol: (§1) Each (S)-α-phenylalanine, (R)-β-phenylalanine, and (2R,3S)-phenylisoserine substrate (at 1 mM) was separately incubated (31° C.) in 100-μL reactions containing 100 mM HEPES (pH 8.0), ATP (1 mM), MgCl2 (3 mM) and TycA or TycA-S563A (20 μg in 0.1-mL assays) to establish steady-state conditions relative to protein concentration and time. Under steady-state conditions, each (S)-α-phenylalanine, (R)-β-phenylalanine, and (2R,3S)-phenylisoserine substrate, at ten concentration intervals from 5 to 1000 μM (in duplicate), was separately incubated with TycA or TycA-S563A for 1 min at 31° C. The reactions were acid-quenched (pH 3 with 10% formic acid), and the biosynthetic products were quantified by LC-ESI-MRM mass spectrometry (Anderson and Hunter, 2006) on the LC-QP/ESI-MS/MS fitted with a C18 Ascentis Express column (2.5×50 mm, 2.7 μm) at 30° C. An aliquot (5 μL) of each sample was loaded onto the column and the analytes were eluted with the CoA-Elution Gradient (see procedures described above). The effluent from the chromatography column was directed to the mass spectrometer where the first quadrupole mass analyzer (in negative ion mode) was set to select for the molecular ion of a biosynthesized (S)-α-phenylalanine-AMP, (R)-β-phenylalanine-AMP, and (2R,3S)-phenylisoserine-AMP. […]

TycA-S563A = TycA-S563A (Brevibacillus parabrevis, UniProt P09095, S563A); assay type: biochemical, Brevibacillus brevis; set-up: The T-domain mutant TycA-S563A was also subcloned into a pSU18 vector and heterologously expressed as a His6-fusion; made in house; host or cells: Escherichia coli BL21(DE3)
Protocol: as §1

Structure (SMILES): N[C@H](CC(=O)O)c1ccccc1 [(R)-β-Phe, (R)-β-phenylalanine]
- kcat^ATP/KM of TycA lower than the value for conversion to the CoA thioester (TycA): ~15 fold
- kcat^ATP (TycA; acyl-AMP formation): 0.10 ± 0.01 min⁻¹
- kcat^ATP/KM of TycA-S563A lower than the value for conversion to the CoA thioester (TycA-S563A): about 46 fold
- kcat^ATP (TycA-S563A; acyl-AMP formation, ATP at apparent saturation): 0.06 ± 0.01 min⁻¹
